Source: article PMC11435625, “In Vitro Hepatic Clearance Evaluations of Per- and Polyfluoroalkyl Substances (PFAS) across Multiple Structural Categories” (Toxics, 2024)

Assays:
plasma protein = details: cited from earlier work; for fup (fraction unbound in plasma): human plasma; for Mean fu: fraction unbound in plasma, input for IVIVE calculations
[1] = IVIVE: steady-state concentration (Css), generic HTTK model; set-up: species or system human; details: for Css: human steady-state concentration, 1 mg/kg/day exposure rate, loss of parent compound only; for Css (mg/L) / Css (uM): Assuming 1 mg/kg/day dose rate, BW 70 kg; for CLhep: QL 1500000 uL/min; for Fub: fub=fup/(B:P), Fub set to 1 if needed; for CLint: scaled to whole liver: HPGL 110 mill cells/g, Vl 1596 g
Method in brief: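 Human Css estimated by IVIVE: plasma protein binding converted to blood fraction unbound via blood-to-plasma partitioning, and experimental Clint scaled with liver scalars to whole liver clearance. AEDs then derived by reverse dosimetry from Css and PFAS in vitro POD, defined as fifth-percentile AC50.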

[2] = Administered equivalent dose (AED) by reverse dosimetry; set-up: species or system human; details: from Css and AC50 POD by reverse dosimetry
Protocol: IVIVE was performed as previously described to calculate human steady-state concentrations (Css). Briefly, experimental plasma protein binding data presented elsewhere were transformed to fraction unbound in blood using blood-to-plasma partitioning values. Experimental Clint values generated here are used in conjunction with relevant liver scalars to scale up to estimate whole liver clearance. […] Once Css values were established, these were used with the PFAS-specific in vitro POD data to calculate the administered equivalent doses (AEDs) using reverse dosimetry. […] The fifth-percentile AC50 value was used to define the in vitro POD. All relevant inputs, scalars, and calculations are provided in Supplementary Information, as indicated in the results.

[3] = tested on: pooled primary human hepatocyte suspensions; assay: Hepatic clearance assay (substrate depletion, LC-MS); details: in µL/min/10^6 cells; for Unadj Clint: unadjusted hepatic intrinsic clearance, Table S4; for Unadj Clint / in vitro CLint exp assay: pooled primary human hepatocyte suspensions; for CLint for HTTK: CLint value carried into HTTK/IVIVE
Method in brief: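 Substrate depletion at 1 μM PFAS in pooled cryopreserved human hepatocytes (~0.5 × 10^6 viable cells/mL, 50-donor pool), 37 °C with shaking, sampled 0–240 min in triplicate. Quantified by LC-MS in negative ion mode against matrix-matched calibration; media-only or heat-inactivated cells as nonmetabolic-loss controls.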

[4] = tested on: pooled primary human hepatocyte suspensions; assay: Bayesian (MCMC, invitroTKstats) analysis of hepatic clearance data; details: Level-4 Bayesian estimate, posterior median; Clint.1 series (Clint.10 all NA)
Text: Markov Chain Monte Carlo was employed in a Bayesian analysis to estimate uncertainty of the hepatic clearance point measures as previously described, but with some modifications [10]. Briefly, after organizing PFAS-level data into a single file, the relationship between the relevant measurement process parameters was described in a graphic model in JAGS language [13] interfaced through R. For hepatic clearance data, the model describes the PFAS-specific mass spectrometric response factor between analyte peak ratio (to internal standard) and chemical concentration. […] The assumed prior for whether the chemical degraded abiotically in vitro followed a Bernoulli distribution with a 5% chance of abiotic degradation. Separate biotic and abiotic components for chemical elimination were estimated, each with a slope following an assumed uniform prior distribution bounded between the zero and the -log (limit of quantitation/Ctest). In scenarios where an external calibration without internal standard was used, the response factor was calculated using the analyte peak alone, introducing additional uncertainty due to the inability to normalize for recovery issues. The model was analyzed jointly by JAGS using five Markov chains. Convergence was identified by requiring the five chains to be consistent, as indicated by the potential scale reduction factor [14] being less than 1.1. The analysis was performed using EPA-developed R package invitroTKstats, available upon request.

SMILES | fup (fraction unbound in plasma) (plasma protein) | Css [1] | AED [2] | Unadj Clint [3] | Clint.1.Med [4] | Mean fu (plasma protein) | Css (mg/L) [1] | Css (uM) [1] | CLhep [1] | Fub [1] | CLint [1] | CLint for HTTK [3] | in vitro CLint exp assay [3]
O=C(O)C(F)(F)C(F)(F)C(F)(F)C(F)(F)C(F)(F)C(F)(F)C(F)(F)C(F)(F)F [PFNA, Perfluorononanoic acid] | 0.0016 | 325.11 µM | 0.05 mg/kg/day | 0.83 | – | – | – | – | – | – | – | – | –
O=S(=O)(O)C(F)(F)C(F)(F)C(F)(F)C(F)(F)F [Perfluorobutanesulfonic acid (PFBS)] | – | – | – | – | 0 | 0.0128 | 2.25 mg/L | 7.51 µM | 1.150 L/h | 0.02327 | 833910 µL/min | 4.75 | 4.75
O=S(=O)(O)C(F)(F)C(F)(F)C(F)(F)C(F)(F)C(F)(F)C(F)(F)C(F)(F)F [PFHpS, Perfluoroheptanesulfonic acid] | 0.0006 | 893.98 µM | 0.02 mg/kg/day | 1.23 | – | – | – | – | – | – | – | – | –
O=S(=O)(O)CCC(F)(F)C(F)(F)C(F)(F)C(F)(F)F | – | – | – | – | 0 | 0.005 | 6.27 mg/L | 19.12 µM | 0.408 L/h | 0.009091 | 751397 µL/min | 4.28 | 4.28
O=C(O)C(F)(F)C(F)(F)C(F)(F)C(F)(F)C(F)(F)F [Perfluorohexanoic acid (PFHxA)] | – | – | – | – | 0 | 0.0068 | 35.49 mg/L | 113.04 µM | 0.000 L/h | 0.01236 | 0 µL/min | 0 | 1.62
O=C(O)C(F)(F)C(F)(F)C(F)(F)C(F)(F)C(F)(F)F [PFHxA, Perfluorohexanoic acid] | 0.0068 | 113.04 µM | 0.08 mg/kg/day | 1.62 | – | – | – | – | – | – | – | – | –
O=C(O)C(F)(F)C(F)(F)C(F)(F)F [Perfluorobutanoic acid (PFBA)] | – | – | – | – | 0 | 0.093 | 2.60 mg/L | 12.13 µM | 0.000 L/h | 0.1691 | 0 µL/min | 0 | 0
O=C(O)CCC(F)(F)C(F)(F)C(F)(F)C(F)(F)C(F)(F)F | – | – | – | – | 19 | 0.0059 | 2.11 mg/L | 6.18 µM | 1.318 L/h | 0.01073 | 2078630 µL/min | 11.84 | 11.84
O=C([O-])C(F)(F)C(F)(F)C(F)(F)C(F)(F)C(F)(F)C(F)(F)C(F)(F)F.[K+] [Potassium perfluorooctanoate (KPFOA)] | – | – | – | – | 0 | 0.0018 | 134.08 mg/L | 323.88 µM | 0.000 L/h | 0.003273 | 0 µL/min | 0 | 0
O=C(O)C(F)(F)C(F)(F)C(F)(F)C(F)(F)C(F)(F)C(F)(F)F [PFHpA, Perfluoroheptanoic acid] | 0.0004 | 1657.68 µM | 0.01 mg/kg/day | 3.12 | – | – | – | – | – | – | – | – | –
O=S(=O)([O-])C(F)(F)C(F)(F)C(F)(F)C(F)(F)F.[K+] | – | – | – | – | 0 | 0.0046 | 52.47 mg/L | 174.92 µM | 0.000 L/h | 0.008364 | 0 µL/min | 0 | 0
O=C(O)C(F)(F)C(F)(F)C(F)(F)C(F)(F)C(F)(F)C(F)(F)C(F)(F)C(F)(F)C(F)(F)C(F)(F)F [Perfluoroundecanoic acid (PFUnDA)] | – | – | – | – | 0 | 0.0116 | 20.81 mg/L | 36.89 µM | 0.000 L/h | 0.02109 | 0 µL/min | 0 | 0
O=S(=O)(O)CCC(F)(F)C(F)(F)C(F)(F)C(F)(F)C(F)(F)C(F)(F)C(F)(F)C(F)(F)F | – | – | – | – | 0 | 0.0396 | 1.81 mg/L | 3.42 µM | 1.146 L/h | 0.072 | 268607 µL/min | 1.53 | 1.53
O=P(O)(O)CCC(F)(F)C(F)(F)C(F)(F)C(F)(F)C(F)(F)C(F)(F)F [2-(Perfluorohexyl)ethylphosphonic acid] | – | – | – | 0.71 | 0 | 0.0123 | 19.62 mg/L | 45.85 µM | 0.000 L/h | 0.02236 | 0 µL/min | 0 | 0
O=S(=O)(O)C(F)(F)C(F)(F)C(F)(F)C(F)(F)C(F)(F)C(F)(F)F [PFHxS, Perfluorohexanesulfonic acid] | 0.0009 | 670.49 µM | 0.033 mg/kg/day | 1.52 | – | – | – | – | – | – | – | – | –
O=C(O)C(F)(F)C(F)(F)C(F)(F)C(F)(F)C(F)(F)C(F)(F)C(F)(F)C(F)(F)C(F)(F)C(F)F [11H-PFUnDA, 11-H-Perfluoroundecanoic acid] | 0.0015 | 294.69 µM | 0.03 mg/kg/day | 0.00 | – | – | – | – | – | – | – | – | –
O=C(O)C(F)(F)C(F)(F)C(F)(F)C(F)(F)C(F)(F)C(F)(F)C(F)(F)C(F)(F)C(F)(F)F [PFDA, Perfluorodecanoic acid] | 0.0027 | 173.91 µM | 0.06 mg/kg/day | 0.00 | – | – | – | – | – | – | – | – | –
O=C(O)C(F)(F)C(F)(F)C(F)(F)C(F)(F)C(F)(F)C(F)(F)F [Perfluoroheptanoic acid (PFHpA)] | – | – | – | – | 0 | 0.0004 | 603.36 mg/L | 1657.68 µM | 0.000 L/h | 0.0007273 | 0 µL/min | 0 | 3.12
O=C([O-])C(F)(F)C(F)(F)C(F)(F)C(F)(F)C(F)(F)C(F)(F)C(F)(F)F.[Na+] [Sodium perfluorooctanoate (NaPFOA)] | – | – | – | – | 0 | 0.0006 | 402.24 mg/L | 971.65 µM | 0.000 L/h | 0.001091 | 0 µL/min | 0 | 0
O=C(O)C(F)(F)C(F)(F)C(F)(F)C(F)(F)C(F)(F)C(F)(F)C(F)(F)C(F)F [9H-PFNA, 9-H-Perfluorononanoic acid] | 0.0009 | 601.28 µM | 0.004 mg/kg/day | 0.00 | – | – | – | – | – | – | – | – | –
O=C(O)C(F)(F)OC(F)(F)C(F)(F)OC(F)(F)F | – | – | – | – | 0 | 0.0031 | 77.85 mg/L | 263.04 µM | 0.000 L/h | 0.005636 | 0 µL/min | 0 | 0
O=S(=O)(O)C(F)(F)C(F)(F)OC(F)(F)C(F)(F)F [Perfluoro(2-ethoxyethane)sulfonic acid] | – | – | – | 5.51 | 266 | 0.0015 | 16.68 mg/L | 52.79 µM | 0.158 L/h | 0.002727 | 967336 µL/min | 5.51 | 5.51
O=C(O)C(F)(F)OC(F)(F)C(F)(F)OC(F)(F)C(F)(F)OC(F)(F)F [Perfluoro-3,6,9-trioxadecanoic acid] | – | – | – | 0.00 | 0 | 0.0003 | 804.48 mg/L | 1952.80 µM | 0.000 L/h | 0.0005455 | 0 µL/min | 0 | 0
O=S(=O)(O)CCC(F)(F)C(F)(F)C(F)(F)C(F)(F)C(F)(F)C(F)(F)F | – | – | – | – | 0 | 0.0143 | 5.29 mg/L | 12.36 µM | 0.382 L/h | 0.026 | 245784 µL/min | 1.4 | 1.4
